Laboratory results reported in US8333970B2, “Methods of monitoring the efficacy of anti-CD40 antibodies in treating a subject having an inflammatory or autoimmune disease” (Novartis AG, priority 2005, dated 2012).
“Also recorded” adds a separate entry of the source.

Tests used:
soluble CD40 = soluble CD40 (Homo sapiens, UniProt P25942); assay: ELISA-type assay, binding to soluble CD40; settings: ELISA-type assays
Excerpt: 2, 2000, and PCT International Application No. PCT/US01/30857, also titled “Human Anti-CD40 Antibodies,” filed Oct. 2, 2001, both of which are herein incorporated by reference in their entirety.

[1] = tested on: pre-clinical tumor models; assay: Pre-clinical tumor models; type: in vivo
normal human B cells = assay: Western blot of phosphorylated signaling proteins in sCD40L-stimulated B cells; type: cell-based; settings: 1 μg/ml sCD40L, 20 minutes
Method: In these experiments, 1.0×10^6 normal human B cells from healthy donors (percent purity between 85-95%) were stimulated with 1 μg/ml sCD40L (Alexis Corporation, Bingham, Nottinghamshire, UK). […] Cells were collected at 0 and 20 minutes. Phosphorylated IKKα (Ser180) and IKKβ (Ser 181) and total IKKβ controls were detected in cell lysates by Western blot.
(§1) In these experiments, 1.0×10^6 normal human B cells from healthy donors (percent purity between 85-95%) were serum starved in 1% FBS-containing media and stimulated with 1 μg/ml sCD40L (Alexis Corporation, Bingham, Nottinghamshire, UK). […] Cells were collected at 0 and 20 minutes. Phospho-IKKα, phospho-IKKβ, total IKKβ, phospho-ERK, total ERK, phospho-AKT, total AKT, phospho-p38, and total p38 were detected in cell lysates by Western blot.
as §1, with “Phospho-ERK,” for “Phospho-IKKα, phospho-IKKβ, total IKKβ, phospho-ERK, total ERK,”, “phospho-IKKα/β,” for “phospho-p38,”, “[…]” for “total p38”

[2] = tested on: cancer cells from NHL and CLL patients; assay: In vitro CD40 ligand-mediated proliferation of patient cancer cells; type: cell-based, human
Excerpt: 4, 2003, Nov. 26, 2003, and Apr. 27, 2004, and assigned U.S. Patent Application Nos. 60/517,337 , 60/525,579, and 60/565,710, respectively, and International Patent Application No. PCT/US2004/037152, also entitled “Antagonist Anti-CD40 Monoclonal Antibodies and Methods for Their Use,” filed Nov. 4, 2004; the contents of each of which are herein incorporated by reference in their entirety.

Sequence of soluble CD40 (P25942 21-193 limits assumed): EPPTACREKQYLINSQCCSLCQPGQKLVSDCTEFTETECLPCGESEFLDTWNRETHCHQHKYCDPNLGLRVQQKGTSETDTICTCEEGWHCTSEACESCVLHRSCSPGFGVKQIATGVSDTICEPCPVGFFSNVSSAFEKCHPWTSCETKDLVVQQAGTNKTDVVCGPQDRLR

With “CHIR-12.12: fully human anti-CD40 monoclonal antibody of the IgG1 isotype, hybridoma 153.8E2.D10.D6.12.12, ATCC PTA-5543, SEQ ID NO:2 and 4” the “binding to soluble CD40” value (soluble CD40) was “bind soluble CD40”, the “anti-tumor potency compared with rituximab” value [1] was “more potent anti-tumor antibody than is rituximab” and the “phosphorylation of IKKα (Ser180) and IKKβ (Ser 181)” value (normal human B cells; 10 μg/ml antibody) was “abrogated this response to sCD40L stimulation”. For the same substance, the “IKKα/β, ERK, AKT and p38 phosphorylation” value (normal human B cells; serum starved, 1 and 10 μg/ml antibody) was “inhibited phosphorylation; also recorded: abrogated the effects of sCD40L stimulation on these signaling pathways”, the “phospho-ERK, phospho-AKT, phospho-IKKα/β, compared with PI3K/AKT and MEK inhibitors” value (normal human B cells; serum starved) was “abrogated the phosphorylation of all of these signal transduction molecules” and the “CD40 ligand-mediated proliferation of cancer cells” value [2] was “inhibiting in vitro CD40 ligand-mediated proliferation of cancer cells from NHL and CLL patients”.
